Entries after “also recorded” stand apart in the source; their conditions may differ.
How the values were obtained:
[1] = system: N-type calcium channels in dorsal root ganglion neurons; conditions: cited from earlier work
[2] = system: rat GABAB receptor (GABAB1/GABAB2); format: binding
[3] = system: N-type calcium channels; conditions: cited from earlier work
[4] = system: GABAB receptor; conditions: cited from earlier work
[5] = system: human α9α10 nAChR; conditions: cited from earlier work
[6] = system: rat GABAB receptor (GABAB1a/GABAB2); format: cell-based
[7] = system: neuropathic pain models; conditions: in vivo; cited from earlier work
[8] = system: GABAB receptor; conditions: cited from earlier work; remark: listed apart in the source

Vc1.1
Block of N-type calcium channels [1]: blocks N-type calcium channels in dorsal root ganglion; also recorded: block N-type calcium channels in DRG neurons
Effect of G-protein signalling inhibition on N-type channel block [1]: block of N-type calcium channels was eliminated by pertussis toxin, intracellular GDPβS, or an inhibitor of pp60c-src tyrosine kinase
Displacement of CGP54626-Red [2]: No displacement; also recorded: None of these conotoxins prevented the binding of the competitive orthosteric antagonist CGP54626-Red
N-type calcium channel block in α9 KO neurons [3]: block N-type calcium channels in cultured neurons from α9 KO mice
Competition with [3H]CGP54626 [4]: did not compete for binding with [3H]CGP54626
Potency human vs. rat α9α10 nAChR [5]: much less potent at the human vs. rat α9α10 nAChR
GABABR activation (BRET change) [6]: do not activate GABABRs expressed in HEK cells; also recorded: no effect; also recorded: neither Vc1.1 nor any of the examined conotoxins activated the GABABR
Analgesic effect [7]: analgesic activity in several models of neuropathic pain
Competition with CGP54626 [8]: did not compete for binding

Reference: PMC5519620 (Frontiers in Cellular Neuroscience, 2017)
